Structures are written as SMILES.

Assay [1] can be described thus: Inhibition of Plasmodium falciparum choline kinase using [methyl-14C]choline as substrate assessed as reduction in rate of incorporation of 14C from [methyl-14C]choline into phosphocholine preincubated for 5 mins followed by substrate addition measured after 10 mins by liquid scintillation counter.
In assay [2] the test system is Plasmodium falciparum. Kind of assay: Antiplasmodial activity against Plasmodium falciparum 3D7 infected in human erythrocytes after 72 hrs by SYBR green 1-based fluorimetric assay. The format is functional, organism-based. The conditions noted are these: 3D7, 72 h.
A further assay concerns the target T1, Choline kinase (Plasmodium falciparum (isolate 3D7), UniProt Q8IM71).
T1 sequence (Q8IM71 whole entry): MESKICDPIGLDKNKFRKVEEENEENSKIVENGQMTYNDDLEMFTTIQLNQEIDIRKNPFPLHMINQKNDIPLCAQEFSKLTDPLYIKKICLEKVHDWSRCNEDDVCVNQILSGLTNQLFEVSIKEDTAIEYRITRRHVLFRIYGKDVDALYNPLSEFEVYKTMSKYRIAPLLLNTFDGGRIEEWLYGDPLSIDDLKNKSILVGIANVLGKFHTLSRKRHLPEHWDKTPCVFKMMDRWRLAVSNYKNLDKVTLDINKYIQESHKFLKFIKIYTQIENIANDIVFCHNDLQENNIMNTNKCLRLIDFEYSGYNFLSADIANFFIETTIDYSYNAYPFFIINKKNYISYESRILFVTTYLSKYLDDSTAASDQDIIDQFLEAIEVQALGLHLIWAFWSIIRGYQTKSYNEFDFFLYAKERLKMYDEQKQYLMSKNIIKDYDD
Kind of assay: Inhibition of Plasmodium falciparum 3D7 choline kinase expressed in Escherichia coli BL21(DE3) assessed as reduction in phosphocholine formation.

In assay [3] the test system is Plasmodium falciparum. Kind of assay: Antiplasmodial activity against Plasmodium falciparum Dd2 infected in human erythrocytes after 48 hrs by picogreen-microfluorimetric assay. The format is functional, organism-based. The settings on record: Dd2, 48 h.
The nature of assay [4]: Inhibition of Plasmodium falciparum choline kinase using [1-14C]ethanolamine as substrate assessed as reduction in rate of incorporation of […] preincubated for 5 mins followed by substrate addition measured after 10 mins by liquid scintillation counter.
In a further assay the target is Choline kinase alpha (Homo sapiens, UniProt P35790). Nature of the assay: Inhibition of human choline kinase alpha1 using [methyl-14C]choline as substrate assessed as reduction in rate of incorporation of 14C from [methyl-14C]choline into phosphocholine preincubated for 5 mins followed by substrate addition measured after 10 mins by scintillation counting.
Chain of Choline kinase alpha (P35790 whole entry): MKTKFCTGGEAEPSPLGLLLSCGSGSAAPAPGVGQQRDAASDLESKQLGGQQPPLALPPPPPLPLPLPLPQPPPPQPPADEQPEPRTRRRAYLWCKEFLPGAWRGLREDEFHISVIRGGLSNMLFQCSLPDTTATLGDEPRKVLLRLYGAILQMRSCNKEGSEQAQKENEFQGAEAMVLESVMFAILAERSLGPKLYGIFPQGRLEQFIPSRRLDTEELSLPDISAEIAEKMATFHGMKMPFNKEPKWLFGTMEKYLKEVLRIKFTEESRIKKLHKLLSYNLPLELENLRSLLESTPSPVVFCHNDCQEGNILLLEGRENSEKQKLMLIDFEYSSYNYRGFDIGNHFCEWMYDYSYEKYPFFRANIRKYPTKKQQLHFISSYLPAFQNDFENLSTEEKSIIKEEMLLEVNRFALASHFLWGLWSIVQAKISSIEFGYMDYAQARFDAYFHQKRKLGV

As a reminder, the IC50 is the concentration needed to halve the response being measured. On to `CN(c1ccc(Cl)cc1)c1cc[n+](Cc2ccc(OCCOc3ccc(C[n+]4ccc(N(C)c5ccc(Cl)cc5)c5ccccc54)cc3)cc2)c2ccccc12`, for which the IC50 was 2520 nM in assay [1] and 149 nM in the assay with Plasmodium falciparum [2].
Turning to `CN(c1ccc(Cl)cc1)c1cc[n+](Cc2ccc(-c3ccc(C[n+]4ccc(N(C)c5ccc(Cl)cc5)c5ccccc54)cc3)cc2)c2ccccc12` [RSM-932A], the half-maximal inhibitory concentration (IC50) on Choline kinase was 1750 nM; in assay [1], 1750 nM; in the assay on Plasmodium falciparum [2] it was 26.5 nM; in the assay on Plasmodium falciparum [3], 26.5 nM.
Consider `CN(C)c1cc[n+](Cc2ccc(-c3ccc(C[n+]4ccc(N5CCCC5)cc4)cc3)cc2)cc1`, for which the results for the IC50 in assay [4] (read-out: IC50) and in assay [1] were 12000 nM and 276000 nM, respectively.
With `OC1C[N+]2(Cc3ccc(OCCOc4ccc(C[N+]56CCC(CC5)C(O)C6)cc4)cc3)CCC1CC2` (stereo not given), in the assay on Plasmodium falciparum [2], half-maximal inhibition (IC50) was put at 1690 nM.
Regarding `CN(C)c1cc[n+](Cc2ccc(OCCOc3ccc(C[n+]4ccc(N(C)C)cc4)cc3)cc2)cc1.[Br-].[Br-]`, the results for the IC50 result (in assay [4]; in assay [1]; in the assay with Plasmodium falciparum [2]) were “Not Active”, ≥ 100000 nM and 16 nM, respectively.
With `Clc1ccc2c(N3CCCC3)cc[n+](Cc3ccc(OCCOc4ccc(C[n+]5ccc(N6CCCC6)c6ccc(Cl)cc65)cc4)cc3)c2c1`, the IC50 in assay [1] came to 14100 nM; in the assay with Plasmodium falciparum [2], 59 nM.
`C[N+]1(C)CCOC(O)(c2ccc(-c3ccc(C4(O)C[N+](C)(C)CCO4)cc3)cc2)C1` (stereo not given) [HEMICHOLINIUM-3]: the IC50 on Choline kinase was 250000 nM; in assay [1], 250000 nM; in the assay with Plasmodium falciparum [2] it was > 50000 nM; in the assay on Plasmodium falciparum [3], > 50000 nM.
`[Br-].[Br-].c1cc(OCCOc2ccc(C[n+]3ccc(N4CCCC4)cc3)cc2)ccc1C[n+]1ccc(N2CCCC2)cc1`: the values for the IC50 entry (in assay [4]; in assay [1]; in the assay on Plasmodium falciparum [2]) were “Not Active”, 50000 nM and 16 nM, respectively.
Take `c1ccc2c(c1)c(N1CCCCCC1)cc[n+]2Cc1ccc(OCCOc2ccc(C[n+]3ccc(N4CCCCCC4)c4ccccc43)cc2)cc1`: the results for the IC50 (in assay [4] (read-out: IC50); in assay [1]; with Plasmodium falciparum [2]) were > 15000 nM, 2360 nM and 142 nM, respectively.
Turning to `Clc1ccc2c(N3CCCCCC3)cc[n+](Cc3ccc(OCCOc4ccc(C[n+]5ccc(N6CCCCCC6)c6ccc(Cl)cc65)cc4)cc3)c2c1`, the results for the IC50 (in assay [4] (read-out: IC50); in assay [1]; with Plasmodium falciparum [2]) were > 50000 nM, 10900 nM and 35 nM, respectively.
In the case of `CN(C)c1cc[n+](Cc2ccc(CCCCc3ccc(C[n+]4ccc(N(C)C)cc4)cc3)cc2)cc1`, the IC50 at Choline kinase was 106000 nM; in assay [1], 106000 nM; with Plasmodium falciparum [2], 3.5 nM; on Choline kinase alpha it was 780 nM; in the assay on Plasmodium falciparum [3] it was 3.5 nM.
The molecule `CN(c1ccccc1)c1cc[n+](Cc2ccc(OCCOc3ccc(C[n+]4ccc(N(C)c5ccccc5)c5ccc(Cl)cc54)cc3)cc2)c2cc(Cl)ccc12` yielded an IC50 in the assay with Plasmodium falciparum [2] of 177 nM.
Regarding `CN(C)c1cc[n+](Cc2ccc(CCCCc3ccc(C[n+]4ccc(N5CCCC5)cc4)cc3)cc2)cc1`, the IC50 in assay [4] (read-out: IC50) is 6000 nM; in assay [1] it was 103000 nM; in the assay with Plasmodium falciparum [2], 3 nM.
Take `CN(c1ccc(Cl)cc1)c1cc[n+](Cc2ccc(OCCOc3ccc(C[n+]4ccc(N(C)c5ccc(Cl)cc5)c5ccc(Cl)cc54)cc3)cc2)c2cc(Cl)ccc12`: the IC50 in assay [1] stood at 6470 nM; in the assay with Plasmodium falciparum [2], 369 nM.
Take `c1cc(OCCOc2ccc(C[N+]34CCC(CC3)CC4)cc2)ccc1C[N+]12CCC(CC1)CC2`: it took 177 nM to reach half-maximal inhibition in the assay on Plasmodium falciparum [2] (IC50).
Consider `CN(c1ccccc1)c1cc[n+](Cc2ccc(OCCOc3ccc(C[n+]4ccc(N(C)c5ccccc5)c5ccccc54)cc3)cc2)c2ccccc12`, for which it took 162 nM to reach half-maximal inhibition in the assay on Plasmodium falciparum [2] (IC50).

(Values after ChEMBL document CHEMBL4118254, “1,2-Diphenoxiethane salts as potent antiplasmodial agents” (Bioorg Med Chem Lett, 2018).)
